Data set [1] relates to 5-HT1 -like receptors. The note with it: in vitro and in vivo animal experiments; cited from earlier work.
The nature of data set [2]: clinical. Also noted: species or system healthy volunteers. The note with it: human, in vivo. On the procedure:
A double-blind, randomized, cross-over trial in healthy volunteers during four treatment days were set up. All volunteers (n=8) participated in the four sessions of the trial, in which the above formulation was tested. On each treatment day volunteers received a single intranasal administration of 1 mg of a formulation of (-)-(R)-N-[(3,4-dihydro-2H-1-benzopyran-2-yl)methyl]-N'-(1,4,5,6-tetrahydro-2-pyrimidinyl)-1,3-propanediamine dihydrochloride as described in example 1. Unidose nasal sprayers at a concentration of 10 mg/ml, which provided a volume of 100 μl per spray were used. The composition was administered to the volunteers as a single spray in one nostril. Blood was sampled over 24 hours for pharmacokinetic analysis. Venous 10 ml blood samples for drug analysis were taken at 0, 5, 10, 20, 30, 60, 90, 120, 240 and 360 minutes and 24 hours after drug administration. The blood samples were transferred to heparinized tubes and centrifuged within 30 minutes after collection. Separated plasma was transferred to polystyrene tubes adequately labelled with the trial number, subject number and initials, time and date of sampling.
Concentrations of (-)-(R)-N-[(3,4-dihydro-2H-1-benzopyran -2-yl)methyl]-N'-(1,4,5,6-tetrahydro-2-pyrimidinyl)-1,3-propanediamine dihydrochloride were determined by radio immunoassay. […]

`c1ccc2c(c1)CCC(CNCCCNC1=NCCCN1)O2` (stereo not drawn) [N-[(3,4-dihydro-2H-1-benzopyran-2-yl)methyl]-N'-(1,4,5,6-tetrahydro-2-pyrimidinyl)-1,3-propanediamine]: in data set [1], the “arterial vasoconstrictor response arises through activation of 5-HT1 -like receptors” value was “agonistic activation of 5-HT1 -like receptors” and the vasoconstrictory properties result is “highly vasoconstrictory properties”.
With `Cl.Cl.c1ccc2c(c1)CC[C@H](CNCCCNC1=NCCCN1)O2` [active ingredient, (-)-(R)-N-[(3,4-dihydro-2H-1-benzopyran-2-yl)methyl]-N'-(1,4,5,6-tetrahydro-2-pyrimidinyl)-1,3-propanediamine dihydrochloride], the bioavailability (as a rule, dose-corrected exposure relative to a reference, in per cent) at 24 h in data set [2] is ~35%.

The values are drawn from patent US6054462A, “Intranasal antimigraine compositions” (Janssen Pharmaceutica, N.V., priority 1994, dated 2000).
